According to the supplement of paper PMC8617591:

Legend:
[1] = test system: Mycobacterium tuberculosis Erdman (autoluminescent); test: AUC25, normalised area under dose response up to IC25 (three-drug combination) (fraction (0-1)); higher = more potent at low dose
Protocol: (§1)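 DiaMOND equipotent three-drug combination dose responses (10 doses, 1.5- or 2-fold spacing, centred on IC90) against autoluminescent M. tuberculosis Erdman in 8 in vitro models. Read-out is OD600, or luminescence for the intracellular and dormancy models, normalised to untreated wells. Hill-fit Einf, AUC25 and GRinf are potency metrics; FIC50 and FIC90 are total Loewe fractional inhibitory concentrations as log2 (negative = synergy).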

[2] = test system: Mycobacterium tuberculosis Erdman (autoluminescent); test: Einf, fitted maximum growth inhibition of three-drug combination (fraction); higher = stronger maximal inhibition
Protocol: as §1

[3] = test system: Mycobacterium tuberculosis Erdman (autoluminescent); test: total FIC90 (Loewe) at 90% inhibition, three-drug combination (log2); higher = more antagonistic
Protocol: as §1

[4] = test system: Mycobacterium tuberculosis Erdman (autoluminescent); test: total FIC50 (Loewe) at 50% inhibition, three-drug combination (log2); higher = more antagonistic
Protocol: as §1

[5] = test system: Mycobacterium tuberculosis Erdman (autoluminescent); test: GRinf, maximum normalised growth rate inhibition (three-drug combination) (unitless (-1 to 1)); higher = less effect (negative = killing)
Protocol: as §1

COc1nc2ccc(Br)cc2cc1[C@@H](c1ccccc1)[C@@](O)(CCN(C)C)c1cccc2ccccc12 [bedaquiline] + CC(C)/N=c1\cc2n(-c3ccc(Cl)cc3)c3ccccc3nc-2cc1Nc1ccc(Cl)cc1 [clofazimine] + COc1c(N2C[C@@H]3CCCN[C@@H]3C2)c(F)cc2c(=O)c(C(=O)O)cn(C3CC3)c12 [moxifloxacin]
Conditions	AUC25, [1]	Einf, [2]	GRinf, [5]	total FIC50, [4]	total FIC90, [3]
in vitro model: acidic pH 5.7, time point: constant (~7 days, model-specific)	0.0874	0.698	-0.457	1.07	–
in vitro model: acidic pH 5.7, time point: terminal (~4-5 doublings, model-specific)	0.0681	0.957	-0.368	0.792	0.0494
in vitro model: intracellular J774, time point: constant = terminal	–	0.974	-0.345	–	0.0395

Conditions	AUC25, [1]	Einf, [2]	GRinf, [5]	total FIC50, [4]	total FIC90, [3]
in vitro model: butyrate, time point: constant (~7 days, model-specific)	0.0682	0.95	-0.111	-0.0983	-0.596
in vitro model: butyrate, time point: terminal (~4-5 doublings, model-specific)	0.0514	0.979	-0.117	0.0193	-0.388
in vitro model: cholesterol 0.05 mM, time point: constant (~7 days, model-specific)	0.0732	0.724	-0.218	-0.685	–
in vitro model: cholesterol 0.05 mM, time point: terminal (~4-5 doublings, model-specific)	0.0839	0.927	-0.23	0.399	-1.01
in vitro model: cholesterol-high 0.2 mM, time point: constant (~7 days, model-specific)	0.094	0.97	-0.382	-0.248	0.136
in vitro model: cholesterol-high 0.2 mM, time point: terminal (~4-5 doublings, model-specific)	0.0879	1	-0.535	0.0978	-0.0166
in vitro model: dormancy (butyrate + nitrate, low O2), time point: constant (~7 days, model-specific)	0.0734	0.907	0.241	-0.202	-0.9
in vitro model: dormancy (butyrate + nitrate, low O2), time point: terminal (~4-5 doublings, model-specific)	0.0897	0.997	-0.093	-0.168	0.176
in vitro model: standard 7H9 glycerol, time point: constant = terminal	0.0896	0.983	-0.156	-0.176	-0.548
in vitro model: valerate, time point: constant (~7 days, model-specific)	0.121	0.959	-0.201	0.443	–
in vitro model: valerate, time point: terminal (~4-5 doublings, model-specific)	0.0856	0.968	-0.1	0.482	1.71

COc1nc2ccc(Br)cc2cc1[C@@H](c1ccccc1)[C@@](O)(CCN(C)C)c1cccc2ccccc12 [bedaquiline] + COc1c(N2C[C@@H]3CCCN[C@@H]3C2)c(F)cc2c(=O)c(C(=O)O)cn(C3CC3)c12 [moxifloxacin] + CO[C@H]1/C=C/O[C@@]2(C)Oc3c(C)c(O)c4c(O)c(c(/C=N/N5CCN(C6CCCC6)CC5)c(O)c4c3C2=O)NC(=O)/C(C)=C\C=C\[C@H](C)[C@H](O)[C@@H](C)[C@@H](O)[C@@H](C)[C@H](OC(C)=O)[C@@H]1C [rifapentine]
Conditions	AUC25, [1]	Einf, [2]	GRinf, [5]	total FIC50, [4]	total FIC90, [3]
in vitro model: acidic pH 5.7, time point: constant (~7 days, model-specific)	0.0678	0.851	-0.0721	0.823	–
in vitro model: acidic pH 5.7, time point: terminal (~4-5 doublings, model-specific)	0.0653	0.994	-0.308	1.07	0.708
in vitro model: intracellular J774, time point: constant = terminal	–	0.932	-0.235	–	0.946

Conditions	AUC25, [1]	Einf, [2]	GRinf, [5]	total FIC50, [4]	total FIC90, [3]
in vitro model: butyrate, time point: constant (~7 days, model-specific)	0.1	0.952	-0.132	0.844	0.676
in vitro model: butyrate, time point: terminal (~4-5 doublings, model-specific)	0.0773	0.977	-0.0985	0.876	0.991
in vitro model: cholesterol 0.05 mM, time point: constant (~7 days, model-specific)	0.0837	0.716	-0.256	0.531	–
in vitro model: cholesterol 0.05 mM, time point: terminal (~4-5 doublings, model-specific)	0.0604	0.905	-0.183	0.923	0.462
in vitro model: cholesterol-high 0.2 mM, time point: constant (~7 days, model-specific)	0.0607	0.949	-0.394	0.723	0.4
in vitro model: cholesterol-high 0.2 mM, time point: terminal (~4-5 doublings, model-specific)	0.0498	1	-0.57	0.949	0.645
in vitro model: dormancy (butyrate + nitrate, low O2), time point: constant (~7 days, model-specific)	0.0857	0.928	0.0745	0.868	1.67
in vitro model: dormancy (butyrate + nitrate, low O2), time point: terminal (~4-5 doublings, model-specific)	0.0736	0.997	-0.28	1.05	1.35
in vitro model: standard 7H9 glycerol, time point: constant = terminal	0.0761	0.966	-0.0766	0.73	0.338
in vitro model: valerate, time point: constant (~7 days, model-specific)	0.063	0.915	-0.117	1.01	–
in vitro model: valerate, time point: terminal (~4-5 doublings, model-specific)	0.0335	0.946	-0.0711	0.995	0.711
